Test [1] deals with human RORγt ligand binding domain (RORγt LBD) (Homo sapiens (Human), UniProt P51449). The test is described as follows: RORγt ThermoFluor® assay (thermal shift binding). Particulars: read-out: ThermoFluor® Assay, Kd. The method in brief: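 Binding was inferred from thermal stabilisation (ΔTm) of the E. coli-expressed RORγt LBD (0.065 mg/mL), monitored by 1,8-ANS (60 μM) emission at 500 nm during a 1 °C/min ramp. Buffer was Hepes 100 mM pH 7.0 with NaCl, GSH and Tween-20.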
(In general: Differential scanning fluorimetry follows unfolding on heating by fluorescence.)

The next test addresses full-length human RORγt (Homo sapiens (Human), UniProt P51449). In words: RORγt (full-length human) reporter assay, Conditions B or C. It counts as cell-based. The settings on record: for IC50: read-out: RORγt (FL) Reporter Assay B or C, IC50; for inhibition at 6 µM: read-out: RORγt (FL) Reporter Assay B or C, % inhibition @ 6 μM, Conditions B or C; for inhibition at 3 µM: at 3 μM compound concentration, read-out: RORγt (FL) Reporter Assay B or C, % inhibition; for RORγt (FL) Reporter Assay B or C, % inhibition (value marked *): marked *: footnote not given. The method in brief: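 Readout is dual luciferase: firefly (GAL4-driven) normalized to DMSO-only and saturating-reference controls, then to CMV-Renilla. Full-length human RORγt fused to GAL4-DBD was transiently expressed in HEK293T; compound exposure ran overnight (16-20 h) starting 4-6 h after transfection, final FBS 1.3%, DMSO 0.1%.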
(In general: A reporter such as luciferase makes a cellular process visible.)

SMILES strings stand for the structures. Like-named read-outs stand apart in the source and are kept apart here.

Sequence of full-length human RORγt (P51449 other isoform, or with tags, fused parts or gaps): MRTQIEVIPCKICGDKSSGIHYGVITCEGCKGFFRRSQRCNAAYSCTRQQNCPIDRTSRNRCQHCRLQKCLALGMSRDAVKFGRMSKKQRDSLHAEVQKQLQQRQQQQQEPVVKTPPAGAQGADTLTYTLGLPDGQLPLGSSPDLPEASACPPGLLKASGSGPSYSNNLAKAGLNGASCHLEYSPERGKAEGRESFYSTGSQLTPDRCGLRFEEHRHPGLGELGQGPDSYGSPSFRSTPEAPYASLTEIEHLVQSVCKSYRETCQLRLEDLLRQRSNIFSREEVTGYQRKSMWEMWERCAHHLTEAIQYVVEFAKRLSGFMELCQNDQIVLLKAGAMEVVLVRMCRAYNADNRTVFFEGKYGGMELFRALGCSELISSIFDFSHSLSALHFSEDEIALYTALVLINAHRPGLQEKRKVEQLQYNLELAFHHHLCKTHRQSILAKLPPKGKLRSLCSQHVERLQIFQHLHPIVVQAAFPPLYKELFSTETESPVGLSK
Sequence of human RORγt ligand binding domain (RORγt LBD) (P51449 other isoform, or with tags, fused parts or gaps): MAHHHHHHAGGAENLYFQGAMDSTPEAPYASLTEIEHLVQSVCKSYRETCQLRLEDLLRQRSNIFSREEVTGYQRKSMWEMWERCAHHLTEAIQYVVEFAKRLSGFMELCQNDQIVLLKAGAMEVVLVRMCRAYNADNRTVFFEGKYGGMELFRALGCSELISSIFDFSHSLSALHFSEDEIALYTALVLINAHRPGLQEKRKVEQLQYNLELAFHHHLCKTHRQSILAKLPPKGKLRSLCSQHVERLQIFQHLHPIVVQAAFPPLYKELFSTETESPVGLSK

A word on the Kd: it is a measure of binding affinity in units of concentration. A word on the IC50: it is the concentration at which inhibition is half-maximal. In the case of `CC[C@@H](Nc1cc(C(F)F)c(-c2sc(C(=O)N[C@H]3COC[C@@H]3O)nc2C(=O)N2CCC[C@@H]2C)cn1)C(F)(F)F` [Example 207, 5-(4-(Difluoromethyl)-6-(((1R)-1-(trifluoromethyl)propyl)amino)-3-pyridyl)-N-((3S,4R)-4-hydroxytetrahydrofuran-3-yl)-4-((2S)-2-methylpyrrolidine-1-carbonyl)thiazole-2-carboxamide], the equilibrium dissociation constant (Kd) in test [1] is 2.6 nM. Moreover, the “RORγt (FL) Reporter Assay B or C, % inhibition (value marked ***)” value at full-length human RORγt (Conditions B or C, marked ***: footnote not given) is listed as 103*** %. Further, the IC50 on full-length human RORγt (Conditions B or C) worked out at 19 nM.
By inhibition is commonly meant the change of the read-out against control, counted positive when it falls. Regarding `C[C@H](Nc1cc(C(F)(F)F)c(-c2sc(C(=O)NCC(C)(C)O)nc2C(=O)N2CCC(F)CC2)cn1)C1CC1` [Example 30, (S)-5-(6-((1-Cyclopropylethyl)amino)-4-(trifluoromethyl)pyridin-3-yl)-4-(4-fluoropiperidine-1-carbonyl)-N-(2-hydroxy-2-methylpropyl)thiazole-2-carboxamide], the dissociation constant (Kd) in test [1] is 2.8 nM. For the same compound, the IC50 at full-length human RORγt (Conditions B or C) amounted to 20 nM. Besides, the inhibition at 6 µM on full-length human RORγt was 104%.
On to `C[C@H](Nc1cc(C(F)F)c(-c2sc(C(=O)N[C@@H]3CC[C@@H](O)C3)nc2C(=O)N2CCC[C@@H]2C)cn1)C(F)(F)F` [Example 289, 5-(4-(Difluoromethyl)-6-(((S)-1,1,1-trifluoropropan-2-yl)amino)pyridin-3-yl)-N-((1R,3R)-3-hydroxycyclopentyl)-4-((S)-2-methylpyrrolidine-1-carbonyl)thiazole-2-carboxamide], for which the Kd in test [1] worked out at 3.8 nM. In addition, on full-length human RORγt, the inhibition at 3 µM amounted to 99% and the half-inhibitory concentration (IC50) was determined as 69 nM.
The like results for `C[C@H](CO)NC(=O)c1nc(C(=O)N2CC(F)(F)C[C@@H]2C)c(-c2cnc(N[C@@H](C)C(F)(F)F)cc2C(F)F)s1` [Example 447, 4-[(2S)-4,4-Difluoro-2-methyl-pyrrolidine-1-carbonyl]-5-[4-(difluoromethyl)-6-[[(1S)-2,2,2-trifluoro-1-methyl-ethyl]amino]-3-pyridyl]-N-[(1R)-2-hydroxy-1-methyl-ethyl]thiazole-2-carboxamide] were, in that order, 2.1 nM, 89% and 75 nM.
With `C[C@H](Nc1cc(C(F)(F)F)c(-c2sc(C(=O)NCC(C)(C)O)nc2C(=O)N2C3CCC2CC3)cn1)C1CCC1` (stereo in doubt) [Example 171, 4-((1s,4s)-7-Azabicyclo[2.2[1]heptane-7-carbonyl)-5-(6-(((S*)-1-cyclobutylethyl)amino)-4-(trifluoromethyl)pyridine-3-yl)-N-(2-hydroxy-2-methylpropyl)thiazole-2-carboxamide], the Kd in test [1] worked out at 4 nM. Also, at full-length human RORγt (Conditions B or C), the “RORγt (FL) Reporter Assay B or C, % inhibition (value marked *)” value (“RORγt … % inhibition (value marked *)” for short) is reported as 108* % and the IC50 is 16 nM.
As to `C[C@H](NC(=O)c1nc(C(=O)N2CCC[C@@H]2C)c(-c2cnc(N[C@H](C)C(F)(F)F)cc2C(F)F)s1)C(C)(C)O` [Example 304, 5-(4-(Difluoromethyl)-6-(((R)-1,1,1-trifluoropropan-2-yl)amino)pyridin-3-yl)-N—((S)-3-hydroxy-3-methylbutan-2-yl)-4-((S)-2-methylpyrrolidine-1-carbonyl)thiazole-2-carboxamide], the Kd in test [1] was 5.1 nM. For the same compound, at full-length human RORγt, the inhibition at 3 µM was 102% and the IC50 was 92 nM.
On to `[2H]C([2H])(NC(=O)c1nc(C(=O)N2CCC[C@@H]2C)c(-c2cnc(NC(C)(C)C)cc2C(F)(F)F)s1)C(C)(C)O` [Example 181, (S)-5-(6-(tert-Butylamino)-4-(trifluoromethyl)pyridine-3-yl)-N-(2-hydroxy-2-methylpropyl-1,1-d2)-4-(2-methylpyrrolidine-1-carbonyl)thiazole-2-carboxamide], for which the Kd in test [1] was 1.1 nM. At full-length human RORγt (Conditions B or C), the “RORγt … % inhibition (value marked *)” value was 112* % and the IC50 was 8.5 nM.
Turning to `CC[C@H](Nc1cc(C(F)F)c(-c2sc(C(=O)N[C@H]3CCC[C@@H]3O)nc2C(=O)N2C3CCC2CC3)cn1)C(F)(F)F` [Example 210, 4-((1s,4s)-7-Azabicyclo[2.2.1]heptane-7-carbonyl)-5-(4-(difluoromethyl)-6-(((1S)-1-(trifluoromethyl)propyl)amino)-3-pyridyl)-N-((1S,2S)-2-hydroxycyclopentyl)thiazole-2-carboxamide], the Kd in test [1] amounted to 0.69 nM. Moreover, on full-length human RORγt (Conditions B or C), the “RORγt … % inhibition (value marked *)” value is reported as 105* % and the concentration for half-maximal inhibition (IC50) was 21 nM.
`CC[C@H](Nc1cc(C(F)F)c(-c2sc(C(=O)N[C@@H]3CC[C@@H](O)C3)nc2C(=O)N2C3CCC2CC3)cn1)C(F)(F)F` [Example 152]: the Kd in test [1] amounted to 0.88 nM. The IC50 at full-length human RORγt (Conditions B or C) amounted to 11 nM. Moreover, the inhibition at 6 µM at full-length human RORγt amounted to 102%.
With `C[C@H](Nc1cc(C(F)F)c(-c2sc(C(=O)NCC(C)(C)O)nc2C(=O)N2CCC[C@@H]2C)cn1)C(C)(C)C` [Example 299, 5-(4-(Difluoromethyl)-6-(((S)-3,3-dimethylbutan-2-yl)amino)pyridin-3-yl)-N-(2-hydroxy-2-methylpropyl)-4-((S)-2-methylpyrrolidine-1-carbonyl)thiazole-2-carboxamide], the equilibrium dissociation constant (Kd) in test [1] is 0.91 nM. Moreover, at full-length human RORγt, the inhibition at 3 µM was determined as 103% and the half-maximal inhibitory concentration (IC50) is 11 nM.
On to `C[C@H]1CC(F)(F)CN1C(=O)c1nc(C(=O)N[C@H]2COC[C@@H]2O)sc1-c1cnc(NC2(C)CCC2)cc1C(F)(F)F` [Example 186], for which, in test [1], the Kd amounted to 0.18 nM. Also, on full-length human RORγt (Conditions B or C), the “RORγt … % inhibition (value marked *)” value is 98* % and the IC50 was 16 nM.
For the compound `CCC(C)(C)Nc1cc(C(F)(F)F)c(-c2sc(C(=O)NCC(C)(C)O)nc2C(=O)N2CCC[C@@H]2C)cn1` [Example 109, (S)—N-(2-Hydroxy-2-methylpropyl)-4-(2-methylpyrrolidine-1-carbonyl)-5-(6-(tert-pentylamino)-4-(trifluoromethyl)pyridin-3-yl)thiazole-2-carboxamide], the dissociation constant Kd in test [1] worked out at 0.53 nM. Further, at full-length human RORγt (Conditions B or C), the “RORγt … % inhibition (value marked *)” value is recorded as 124* % and the IC50 is 18 nM.
Regarding `CC[C@H](Nc1cc(C(F)F)c(-c2sc(C(=O)N[C@@H]3CC[C@H]3O)nc2C(=O)N2CCC[C@@H]2C)cn1)C(F)(F)F` (relative stereo) [Example 376, 5-(4-(Difluoromethyl)-6-(((S)-1,1,1-trifluorobutan-2-yl)amino)pyridin-3-yl)-N-((1R*,2R*)-2-hydroxycyclobutyl)-4-((S)-2-methylpyrrolidine-1-carbonyl)thiazole-2-carboxamide], in test [1], the Kd came out at 3.8 nM. Further, on full-length human RORγt, the inhibition at 3 µM came to 101% and the IC50 was found to be 60 nM.
As for `C[C@H]1CCCN1C(=O)c1nc(C(=O)NCC(O)C(F)(F)F)sc1-c1cnc(NC(C)(C)C)cc1C(F)(F)F` (stereo in doubt) [Example 352, 5-[6-(tert-Butylamino)-4-(trifluoromethyl)-3-pyridyl]-4-(2-methylpyrrolidine-1-carbonyl)-N-(3,3,3-trifluoro-2-hydroxy-propyl)thiazole-2-carboxamide], the dissociation constant (Kd) in test [1] was determined as 1.1 nM. Moreover, on full-length human RORγt, the inhibition at 3 µM is 103% and the half-inhibitory concentration (IC50) was determined as 42 nM.
The like results for `C[C@H]1CCCN1C(=O)c1nc(C(=O)N[C@H]2CC[C@@H](O)C2)sc1-c1cnc(NC(C)(C)C)cc1C(F)(F)F` [Example 367, 5-[6-(tert-Buylamino)-4-(trifluoromethyl)-3-pyridyl]-N-[(1S,3R)-3-hydroxycyclopentyl]-4-[(2S)-2-methylpyrrolidine-1-carbonyl]thiazole-2-carboxamide] were, in that order, 2.1 nM, 99% and 21 nM.

The record behind these values is US10975068B2, “6-aminopyridin-3-yl thiazoles as modulators of RORγT” (Janssen Pharmaceutica NV, priority 2016, dated 2021).
